Source: patent publication US9352015B2, “Antimicrobial peptides” (priority 2009, dated 2016)
≈ marks a conversion by molar mass, not a printed value. Where “and” joins values, the source holds several entries; their conditions need not be identical. Equal entries are not always repeated. Where two headings read alike, the source gives them in different places.

How the values were obtained:
[1] = tested on: Acinetobacter baumannii; assay type: cell-based
Procedure: (§1) Minimal inhibitory concentrations (MICs) are determined using a standard microtiter dilution method, with 3 sets of determinations, in LB (Luria-Bertani) no-salt medium (10 g of tryptone and 5 g of yeast extract per liter). In some cases, Mueller Hinton (MH) medium or Brain Heart Infusion (BHI) medium is used.
(§2) Briefly, cells were grown overnight at 37° C. in LB and diluted in the same medium. Serial dilutions of the peptides are added to the microtiter plates in a volume of 100 μl followed by 10 μl of bacteria to give a final inoculum of 5×10^5 colony-forming units/ml. Plates are incubated at 37° C. for 24 hours and MICs determined as the lowest peptide concentration that inhibited growth. Alternatively, minimal inhibitory concentrations are determined using a standard microtiter dilution method in a Mueller-Hinton (MH) medium. Briefly, cells are grown overnight at 37° C. in MH broth and diluted in the same medium. In some cases, serial dilutions of the peptides are added to the microtiter plates in a volume of 100 μl followed by 10 μl of bacteria to give a final inoculum of 1×10^5 colony-forming units/ml. Plates are incubated at 37° C. for 24 hours and MICs are determined as the lowest peptide concentration that inhibited growth.
The biological activities of these six peptide analogs was determined against 11 clinical isolated of Acinetobacter baumannii (Table 9). Please note that the activities are reported in micromolar rather than microgram/ml. This allows a direct comparison on a molar basis with the effectiveness of molecules of different molecular weights whether peptides disclosed herein or antibiotics which in general are smaller in molecular mass. […] These are the highest antimicrobial activities observed in studies of antimicrobial peptides derived by modifying the peptide sequence of SEQ ID NO:24 (D1). D22 has the best hemolytic activity of the six analogs (D17-D22) and a therapeutic index of […] compared to […] for D1 (Table 9). D22 has no apparent advantage over D1 as determined in these experiments.

[2] = tested on: human erythrocytes; experiment: Hemolytic activity against human erythrocytes (HC50 / MHC, microtiter dilution); assay type: cell-based
Procedure: (§3) Hemoglobin release was determined spectrophotometrically at 570 nm. The hemolytic activity was determined as the peptide concentration that caused 50% hemolysis of erythrocytes after 18 h (HC50). […] HC50 was determined by a plot of peptide concentration versus percent lysis.

[3] = tested on: Pseudomonas aeruginosa; settings: for MIC PAO 1: 37° C., 24 h, strain PAO1; for MIC GM (geometric mean of the MIC values): six P. aeruginosa strains; for MIC CP 204: strain CP204; for MIC M 2: strain M2; for MIC PA 14: strain PA14; for MIC PAK: strain PAK; for MIC WR 5: strain WR5
[4] = RP-HPLC retention as measure of overall peptide hydrophobicity; assay type: physicochemical; settings: pH 2, room temperature
Procedure: Crude and purified peptides were analyzed on an Agilent 1100 series liquid chromatograph (Little Falls, Del.). Runs were performed on a Zorbax 300 SB-C8 column (150×2.1 mm I.D.; 5 μm particle size, 300 Å pore size) from Agilent Technologies using linear AB gradient (1% acetonitrile/min) and a flow rate of 0.25 ml/min, where eluant A was 0.2% aqueous TFA, pH 2 and eluant B was 0.2% TFA in acetonitrile.

[5] = Hemolytic activity against human erythrocytes (HC50 / MHC, microtiter dilution); assay type: cell-based; settings: human, 1% human erythrocytes, pH 7.4
Procedure: as §3

[6] = tested on: Methicillin Resistant Staphylococcus aureus (MRSA) and Staphylococcus aureus; assay type: cell-based
Procedure: as §1, §2
Identification of Antimicrobial Peptides for Gram-positive Bacteria. In a manner similar to testing against gram-negative bacteria, experiments were carried out to screen the 14 peptides used to identify antimicrobial peptides with significant activity against A. baumanii shown above against 20 different clinical isolates of Methicillin Resistant Staphylococcus aureus (MRSA) and Staphylococcus aureus.

[7] = RP-HPLC temperature profiling (peptide self-association parameter PA); assay type: physicochemical; settings: RP-HPLC temperature profiling 5-80° C., pH 2, relative to control peptide C
Procedure: Temperature profiling analyses were performed on the same column in 3° C. increments, from 5° C. to 80° C., using a linear AB gradient of 0.5% acetonitrile/min, as described previously (30, 53, 92, 93).
Peptide self-association (i.e., the ability to oligomerize/dimerize) in aqueous solution is a very important parameter for antimicrobial activity (53, 92, 93). Without wishing to be bound by any particular theory, the present inventors postulated that monomeric random-coil antimicrobial peptides are best suited to pass through the capsule and cell wall of microorganisms prior to penetration into the cytoplasmic membrane, induction of α-helical structure and disruption of membrane structure to kill target cells (93). Thus, if the self-association ability of a peptide in aqueous media is too strong (e.g., forming stable folded dimers through interaction of their non-polar faces) this could decrease the ability of the peptide to dissociate to monomer, in addition oligomerization of the peptide can prevent it from effectively passing through the capsule and cell wall to reach the membrane. The ability of the peptides in the present study to self-associate was determined by the technique of RP-HPLC temperature profiling at pH 2 (29, 30, 38). The reason pH 2 is used to determine self-association of cationic AMPs is that highly positively charged peptides are frequently not eluted from reversed-phase columns at pH 7 due to non-specific binding to negatively charged silanols on the column matrix. This is not a problem at pH 2 since the silanols are protonated (i.e., neutral) and non-specific electrostatic interactions are eliminated. At pH 2, the interactions between the peptide and the reversed-phase matrix involve ideal retention behavior, i.e., only hydrophobic interactions between the preferred binding domain (nonpolar face) of the amphipathic molecule and the hydrophobic surface of the column matrix are present (39). […] Control peptide C is a monomeric random coil peptide in both aqueous and hydrophobic media; thus, its linear decrease in peptide retention behavior with increasing temperature within the range of 5° C. to 80° C. represents only the general effects of temperature due to greater solute diffusivity and enhanced mass transfer between the stationary and mobile phase at higher temperatures (55). To allow for these general temperature effects, the data for the control peptide was subtracted from each temperature profile as shown in FIG. 2B. Thus, the peptide self-association parameter, PA, represents the maximum change in peptide retention time relative to the random coil peptide C. Note that the higher the PA value, the greater the self-association.

| Compound | MIC GM (geometric mean) [1] | Hydrophobicity (retention time in RP-HPLC) [4] | HC50 at 18 h [5] | MIC GM (geometric mean) [6] | MIC PAO 1 ([3]; Brain Heart Infusion medium) | MIC GM (geometric mean of the MIC values) ([3]; Brain Heart Infusion medium) | MIC CP 204 ([3]; Brain Heart Infusion medium) | MIC M 2 ([3]; Brain Heart Infusion medium) | MIC PA 14 ([3]; Brain Heart Infusion medium) | MIC PAK ([3]; Brain Heart Infusion medium) | MIC WR 5 ([3]; Brain Heart Infusion medium) | MIC PAO 1 ([3]; Mueller Hinton medium) | MIC GM (geometric mean of the MIC values) ([3]; Mueller Hinton medium) | MIC CP 204 ([3]; Mueller Hinton medium) | MIC M 2 ([3]; Mueller Hinton medium) | MIC PA 14 ([3]; Mueller Hinton medium) | MIC PAK ([3]; Mueller Hinton medium) | MIC WR 5 ([3]; Mueller Hinton medium) | PA (dimerization / self-association parameter) [7] | other results |
| --- | --- | --- | --- | --- | --- | --- | --- | --- | --- | --- | --- | --- | --- | --- | --- | --- | --- | --- | --- | --- |
| CC(=O)N[C@H](CCCCN)C(=O)N[C@H](CC(C)C)C(=O)N[C@H](CCCCN)C(=O)N[C@H](CO)C(=O)N[C@H](CC(C)C)C(=O)N[C@H](CC(C)C)C(=O)N[C@H](CCCCN)C(=O)N[C@@H](C(=O)N[C@H](CC(C)C)C(=O)N[C@H](CO)C(=O)N[C@H](CCCCN)C(=O)N[C@H](CC(C)C)C(=O)N[C@H](CCCCN)C(=O)N[C@H](CCCCN)C(=O)N[C@H](CCCCN)C(=O)N[C@H](CCCCN)C(=O)N[C@H](CC(C)C)C(=O)N[C@H](CCCCN)C(=O)N[C@@H](C(=O)N[C@H](CC(C)C)C(=O)N[C@H](CC(C)C)C(=O)N[C@H](CCCCN)C(=O)N[C@H](C)C(=O)N[C@H](CC(C)C)C(=O)N[C@H](CO)C(=O)N[C@H](CCCCN)C(N)=O)[C@H](C)O)[C@H](C)O [Peptide D23, Ac-KLKSLLKTLSKLKKKKLKTLLKALSK-amide] |  |  |  |  |  |  |  |  |  |  |  |  |  |  |  |  |  |  |  | Acinetobacter baumannii MICGM ([1]; geometric mean, 11 different isolates, 24 hours at 37° C.): 0.8 µM; Hemolytic activity HC50 [2]: 186 µM; Pseudomonas aeruginosa MICGM ([3]; geometric mean, 6 different isolates, 24 hours at 37° C.): 2 µM |
| CC[C@@H](C)[C@@H](NC(=O)[C@@H](C)NC(=O)[C@@H](CCCCN)NC(=O)[C@@H](CC(C)C)NC(=O)[C@@H](CC(C)C)NC(=O)[C@H](NC(=O)[C@@H](CCCCN)NC(=O)[C@@H](CC(C)C)NC(=O)[C@@H](C)NC(=O)[C@@H](CCCCN)NC(=O)[C@@H](CCCCN)NC(=O)[C@@H](CCCCN)NC(=O)[C@@H](C)NC(=O)[C@@H](CCCCN)NC(=O)[C@@H](CO)NC(=O)[C@@H](Cc1ccccc1)NC(=O)[C@H](NC(=O)[C@@H](CCCCN)NC(=O)[C@@H](CC(C)C)NC(=O)[C@@H](Cc1ccccc1)NC(=O)[C@@H](CO)NC(=O)[C@@H](CO)NC(=O)[C@@H](Cc1c[nH]c2ccccc12)NC(=O)[C@@H](CO)NC(C)=O)[C@H](C)O)[C@H](C)O)C(=O)N[C@H](CO)C(=O)N[C@H](CO)C(N)=O [Peptide D19, Ac-SWSSFLKTFSKAKKKALKTLLKAISS-amide] | 0.8 µM (≈ 2.35 µg/mL) | 97.94 min | 36 µg/mL and 12.2 µM | 5.3 µM (≈ 15.6 µg/mL) | 7.8 µg/mL (≈ 2.65 µM) | 9.8 µg/mL | 15.6 µg/mL (≈ 5.31 µM) | 7.8 µg/mL (≈ 2.65 µM) | 3.9 µg/mL (≈ 1.33 µM) | 15.6 µg/mL (≈ 5.31 µM) | 15.6 µg/mL (≈ 5.31 µM) | 3.9 µg/mL (≈ 1.33 µM) | 7.8 µg/mL | 15.6 µg/mL (≈ 5.31 µM) | 15.6 µg/mL (≈ 5.31 µM) | 3.9 µg/mL (≈ 1.33 µM) | 3.9 µg/mL (≈ 1.33 µM) | 15.6 µg/mL (≈ 5.31 µM) | 7.07 |  |
| CC[C@@H](C)[C@@H](NC(=O)[C@@H](C)NC(=O)[C@@H](CO)NC(=O)[C@@H](CC(C)C)NC(=O)[C@@H](CC(C)C)NC(=O)[C@H](NC(=O)[C@@H](CCCCN)NC(=O)[C@@H](CC(C)C)NC(=O)[C@@H](C)NC(=O)[C@@H](CCCCN)NC(=O)[C@@H](CCCCN)NC(=O)[C@@H](CCCCN)NC(=O)[C@@H](C)NC(=O)[C@@H](CCCCN)NC(=O)[C@@H](CO)NC(=O)[C@@H](Cc1ccccc1)NC(=O)[C@H](NC(=O)[C@@H](CCCCN)NC(=O)[C@@H](CC(C)C)NC(=O)[C@@H](Cc1ccccc1)NC(=O)[C@@H](CO)NC(=O)[C@@H](CO)NC(=O)[C@@H](Cc1c[nH]c2ccccc12)NC(=O)[C@@H](CO)NC(C)=O)[C@H](C)O)[C@H](C)O)C(=O)N[C@H](CO)C(=O)N[C@H](CO)C(N)=O [Peptide D18, Ac-SWSSFLKTFSKAKKKALKTLLSAISS-amide] | 0.9 µM (≈ 2.61 µg/mL) | 97.87 min | 55 µg/mL and 19 µM | 17.1 µM (≈ 49.6 µg/mL) | 10.4 µg/mL (≈ 3.59 µM) | 14.7 µg/mL | 41.7 µg/mL (≈ 14.4 µM) | 10.4 µg/mL (≈ 3.59 µM) | 10.4 µg/mL (≈ 3.59 µM) | 10.4 µg/mL (≈ 3.59 µM) | 20.8 µg/mL (≈ 7.17 µM) | 7.8 µg/mL (≈ 2.69 µM) | 9.8 µg/mL | 15.6 µg/mL (≈ 5.38 µM) | 7.8 µg/mL (≈ 2.69 µM) | 7.8 µg/mL (≈ 2.69 µM) | 7.8 µg/mL (≈ 2.69 µM) | 15.6 µg/mL (≈ 5.38 µM) | 7.21 |  |
| CC[C@@H](C)[C@@H](NC(=O)[C@@H](C)NC(=O)[C@@H](CCCCN)NC(=O)[C@@H](CC(C)C)NC(=O)[C@@H](CC(C)C)NC(=O)[C@H](NC(=O)[C@@H](CCCCN)NC(=O)[C@@H](CC(C)C)NC(=O)[C@@H](C)NC(=O)[C@@H](CCCCN)NC(=O)[C@@H](CCCCN)NC(=O)[C@@H](CCCCN)NC(=O)[C@@H](C)NC(=O)[C@@H](CCCCN)NC(=O)[C@@H](CO)NC(=O)[C@@H](Cc1ccccc1)NC(=O)[C@H](NC(=O)[C@@H](CCCCN)NC(=O)[C@@H](CC(C)C)NC(=O)[C@@H](Cc1ccccc1)NC(=O)[C@@H](CO)NC(=O)[C@@H](CCCCN)NC(=O)[C@@H](Cc1c[nH]c2ccccc12)NC(=O)[C@@H](CO)NC(C)=O)[C@H](C)O)[C@H](C)O)C(=O)N[C@H](CO)C(=O)N[C@H](CCCCN)C(N)=O [Peptide D21, Ac-SWKSFLKTFSKAKKKALKTLLKAISK-amide] | 1.1 µM (≈ 3.33 µg/mL) | 93.77 min | 88.5 µg/mL and 29.3 µM | 7.3 µM (≈ 22.1 µg/mL) | 15.6 µg/mL (≈ 5.16 µM) | 6.2 µg/mL | 15.6 µg/mL (≈ 5.16 µM) | 3.9 µg/mL (≈ 1.29 µM) | 3.9 µg/mL (≈ 1.29 µM) | 3.9 µg/mL (≈ 1.29 µM) | 3.9 µg/mL (≈ 1.29 µM) | 7.8 µg/mL (≈ 2.58 µM) | 6.2 µg/mL | 15.6 µg/mL (≈ 5.16 µM) | 15.6 µg/mL (≈ 5.16 µM) | 0.5 µg/mL (≈ 0.165 µM) | 3.9 µg/mL (≈ 1.29 µM) | 15.6 µg/mL (≈ 5.16 µM) | 6.00 |  |
